Experimental findings from ChEMBL document CHEMBL4699506, “Polyhalogenation of Isoflavonoids by the Termite-Associated Actinomadura sp. RB99” (2020) are described below.

By MIC is commonly meant the smallest concentration in the dilution series that meets the test's criterion for growth inhibition. The term MIC50 denotes an inhibitory concentration at the 50% level, which refers to growth in some studies and to a panel of isolates in others.

Common to all, as to assay type: functional
One assay relates to Candida albicans. As to the kind of experiment: Antifungal activity against Candida albicans assessed as reduction in […] by two-fold serial dilution method.
Assay [1] concerns Staphylococcus epidermidis. In words: Antibacterial activity against Staphylococcus epidermidis assessed as reduction in bacterial growth after 24 hrs by two-fold serial dilution method.
In another assay the test system is Escherichia coli. As to the kind of experiment: Antibacterial activity against Escherichia coli assessed as reduction in bacterial growth after 24 hrs by two-fold serial dilution method.
The test system of another assay is Helicobacter pylori. In words: Antibacterial activity against Helicobacter pylori 51 assessed as reduction in microbial growth after 24 hrs by two-fold serial dilution method.

Regarding `O=c1c(-c2cc(Cl)c(O)c(Cl)c2)coc2cc(O)ccc12`, the MIC (in the assay with Candida albicans; in assay [1]; in the assay with Escherichia coli) was above 50 µg/mL each time.
Turning to `O=c1c(-c2ccc(O)cc2)coc2c(Cl)c(O)c(O)c(Cl)c12`, the minimal inhibitory concentration (MIC) (in the assay on Candida albicans; in assay [1]; with Escherichia coli) was above 50 µg/mL in each case.
On to `O=c1c(-c2cc(Cl)c(O)c(Cl)c2)coc2c(Cl)c(O)c(Cl)c(O)c12`, for which the MIC (with Candida albicans; in assay [1]; with Escherichia coli) was above 50 µg/mL in each case.
In the case of `O=c1c(-c2ccc(O)cc2)coc2c(Cl)c(O)c(Cl)c(O)c12`, the MIC (in the assay on Candida albicans; in assay [1]; with Escherichia coli) was above 50 µg/mL throughout.
For the compound `O=c1c(-c2cc(Br)c(O)c(Br)c2)coc2c(Br)c(O)c(Br)c(O)c12`, in the assay on Helicobacter pylori, the minimum inhibitory concentration (MIC) was determined as 58.1 µg/mL and the MIC50 worked out at 14.5 µg/mL.
With `COc1cc2occ(-c3cc(Cl)c(O)c(Cl)c3)c(=O)c2cc1OC`, the minimal inhibitory concentration (MIC) (in the assay with Candida albicans; in assay [1]; in the assay on Escherichia coli) was above 50 µg/mL throughout.
For `O=c1c(-c2cc(Br)c(O)c(Br)c2)coc2c(Br)c(O)ccc12`, in the assay on Helicobacter pylori, the MIC was found to be 35.1 µg/mL and the MIC50 was 6.9 µg/mL.
Turning to `COc1cc2c(=O)c(-c3cc(Cl)c(O)c(Cl)c3)coc2c(Cl)c1O`, the MIC (in the assay on Candida albicans; in assay [1]; with Escherichia coli) was above 50 µg/mL throughout.
In the case of `COc1cc2c(=O)c(-c3cc(Cl)c(O)c(Cl)c3)coc2cc1O`, the MIC (in the assay with Candida albicans; in assay [1]; with Escherichia coli) was above 50 µg/mL throughout.
As for `O=c1c(-c2cc(Cl)c(O)c(Cl)c2)coc2c(Cl)c(O)c(Cl)cc12`, the MIC (with Candida albicans; in assay [1]; in the assay on Escherichia coli) was above 50 µg/mL each time.
For the compound `Cc1ncc([N+](=O)[O-])n1CCO` [METRONIDAZOLE], in the assay on Helicobacter pylori, the MIC was determined as 4.3 µg/mL and the MIC50 worked out at 11.8 µg/mL.
